Laboratory results as given in US5880095A, “Cholesteryl ester transfer protein inhibitor peptides and prophylactic and therapeutic anti-arteriosclerosis agents” (LG Chemical Ltd., priority 1994, dated 1999).
Where two headings read alike, the source gives them in different places. One block for each sequence: values may come before it. No end group written: not given here.

Columns and labels:
[1] = molecular target: T1, CETP (human blood plasma as CETP source) (Homo sapiens, UniProt P11597); experiment: Determination of CETP inhibitory activity, human blood plasma itself as CETP source; assay type: biochemical
T1 construct: human blood plasma itself was used as the CETP source; from tissue; host or cells: human blood plasma (used as such)
T1 sequence (P11597 18-493): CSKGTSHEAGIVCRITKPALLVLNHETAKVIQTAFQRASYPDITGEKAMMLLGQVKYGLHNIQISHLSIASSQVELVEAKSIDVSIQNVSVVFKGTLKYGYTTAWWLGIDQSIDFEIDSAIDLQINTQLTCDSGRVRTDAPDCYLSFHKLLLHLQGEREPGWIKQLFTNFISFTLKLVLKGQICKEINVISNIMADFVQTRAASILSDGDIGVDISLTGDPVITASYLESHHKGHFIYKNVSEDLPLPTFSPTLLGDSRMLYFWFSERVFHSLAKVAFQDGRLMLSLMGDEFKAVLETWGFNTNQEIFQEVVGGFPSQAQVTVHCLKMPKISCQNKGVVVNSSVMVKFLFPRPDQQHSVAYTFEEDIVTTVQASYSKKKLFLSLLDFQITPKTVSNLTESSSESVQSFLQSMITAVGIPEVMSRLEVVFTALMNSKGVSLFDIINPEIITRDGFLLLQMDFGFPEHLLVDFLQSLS
Description: (§1) LDL and [^3 H]-cholesteryl oleate-labelled HDL were synthesized in accordance with the method of Morton et al.(see, J. Biol. Chem., 256, 11992-11995(1981)) and then separated using an ultracentrifuge(Beckman XL 70). LDL and [^3 H]-HDL, thus prepared, were used as a CE-receptor and a CE-donor, respectively.
(§2) 0.3 ml of LDL, 0.05 ml of [^3 H]-HDL and 0.05 ml of the CETP source, which were prepared above, and 0.05 ml of a CETP inhibitor were added into a 1.5 ml tube and reacted at 37° C. for 3 hours.
(§3) When the reaction was finished, LDL was precipitated in accordance with the method of Morton et al.(see, Biochim. Biophys. Acta, 663, 350-355(1981)). The amount of the isotope transferred to LDL was determined with a liquid scintillation counter(Packard Tricarb 1600 TR) using a part of the supernatant, and the activity of CETP was calculated therefrom.
(§4) The inhibitory activity of the CETP inhibitor was calculated from the CETP activities of the experimental group, in which the CETP inhibitor was added, and that of control group, in which no CETP inhibitor was added, as follows: [formula]
Further, the same procedures as in the Reference Example, except that human blood plasma itself was used as the CETP source, were repeated to determine CETP inhibitory activity of pure 3 kDa peptide.
CETP inhibitory activities of peptides P28, P10, P18, P24, P20 and P14 were determined in accordance with the method of Reference Example 1 using pure CETP or human blood plasma as a CETP source. To exclude possible nonspecific inhibition, a 2 kDa soluble peptide having an optional amino acid sequence was synthesized, and CETP inhibitory activity thereof was determined in a similar manner(control group).

[2] = tested on: Human fibroblast cell line(A431, ATCC CRL 1555); experiment: Toxicity test on cultured cells; assay type: cell-based; settings: 10% (wt/vol) peptide, 72 hours, DMEM with 10% FBS, compared with control without peptide
Description: Human fibroblast cell line(A431, ATCC CRL 1555) was cultured on DMEM medium containing 10% fetal bovine serum(FBS), with the addition of 10% (wt/vol) Peptide P28, P18, P10, P24, P20 or P14, for 72 hours.

[3] = molecular target: T2, pure CETP separated from human blood plasma (Homo sapiens, UniProt P11597); experiment: Determination of CETP inhibitory activity (CE transfer from [3H]-HDL to LDL), pure CETP as CETP source; assay type: biochemical; settings: for inhibition at 7 µM: final conc. 7 μM; for inhibition at 9 µM: final conc. 9 μM
T2 construct: Pure CETP was separated from human blood plasma in accordance with the method of Hesler et al; from tissue; host or cells: human blood plasma
T2 sequence (P11597 18-493): T1 sequence (P11597 18-493)
Description: as §1
(§5) Pure CETP was separated from human blood plasma in accordance with the method of Hesler et al.(see, J. Biol. Chem., 262, 2275-2282(1987)) and used as a CETP source.
as §2, §3, §4

[4] = molecular target: T3, CETP (Homo sapiens, UniProt P11597); experiment: CETP inhibitory activity of Peptide P28 according to the substrate (CE-receptor VLDL, LDL, HDL or LDLR); assay type: biochemical; settings: final concentration 2 μM
T3 construct: Pure CETP was separated from human blood plasma in accordance with the method of Hesler et al; from tissue; host or cells: human blood plasma
T3 sequence (P11597 18-493): T1 sequence (P11597 18-493)
Description: as §1, §5, §2, §3, §4
In order to identify the inhibitory mechanism of Peptide P28 in blood, CETP inhibitory activity of Peptide P28 was determined in accordance with the method of Reference Example 1, using VLDL, LDL, HDL or re-synthesized LDL(LDLR) as a CE-receptor. LDLR was synthesized from LDL obtained in Reference Example 1 by the method of Morton et al.(see, J. Biol. Chem., 256, 11992-11995(1981)). The LDL was delipidated with chloroform and subjected to a gel chromatography to obtain ApoB100 protein. Phosphatidylcholine and cholesteryl oleate was thoroughly mixed, dried using nitrogen gas, and ApoB100 protein obtained above was added thereto. The mixture was reacted with stirring, dialyzed against tris buffer, and subjected to a gel chromatography to obtain LDLR.

[5] = final conc. of peptide 2 μM, CETP source human plasma, P28' and P13 produced in E. coli, read-out: Inhibitory Activity
[6] = alanine variants of P10, CETP source not given
[7] = conc. of inhibitor 2 μM, CETP source human plasma, peptides expressed in E. coli, read-out: Inhibitory Activity (Mean ± SD)
[8] = final conc. of peptide 2 μM, CETP source pure CETP, synthesized peptides

inhibition at 2 µM [1, 5]: 45 ± 2.3%
inhibition at 2 µM ([1]; final conc. of peptide 2 μM, CETP source human plasma, synthesized peptides, read-out: Inhibitory Activity (Mean ± S.D.)): 50 ± 4.5%
inhibition at 2 µM ([3]; final conc. of peptide 2 μM, CETP source pure CETP, synthesized peptides, read-out: Inhibitory Activity (Mean ± S.D.)): 100 ± 2%
Sequence: EDTSPEDKMQ [Peptide P10]
change in growth condition and morphology of cultured cells [2]: no change

inhibition at 2 µM ([3]; final conc. 2 μM, alanine variants of P10, CETP source not given, read-out: CETP inhibitory activity): -3%
Sequence: EDTSPEAKMQ [Variant G]

inhibition at 7 µM [3, 6]: -12%
Sequence: EDTAPEDKMQ [Variant D]

inhibition at 9 µM [3, 6]: 69%
Sequence: EDTSPEDKAQ [Variant I]

inhibition at 9 µM [3, 6]: -6%
Sequence: EDTSAEDKMQ [Variant E]

inhibition at 7 µM [3, 6]: -15%
Sequence: EATSPEDKMQ [Variant B]

inhibition at 7 µM [3, 6]: 41%
Sequence: EDTSPEDKMA [Variant J]

inhibition at 6 µM ([3]; final conc. 6 μM, alanine variants of P10, CETP source not given): 29%
Sequence: EDTSPADKMQ [Variant F]

inhibition at 8 µM ([3]; final conc. 8 μM, alanine variants of P10, CETP source not given): -6%
Sequence: EDASPEDKMQ [Variant C]

inhibition at 2 µM [1, 5]: 34 ± 2.9%
Sequence: SEAEDASLLSFMQ [Peptide P13]

inhibition at 2 µM [1, 7]: 15 ± 1.5%
Inhibitory Activity (Mean ± S.D.) [3, 8]: 50 ± 3.5%
Sequence: EDTSPEDKMQDYVK [Peptide P14]
change in growth condition and morphology of cultured cells [2]: no change

inhibition at 2 µM [1, 7]: 45 ± 2.2%
Inhibitory Activity (Mean ± S.D.) [3, 8]: 90 ± 1.5%
Sequence: EDTSPEDKMQDYVKQATRTA [Peptide P20]
change in growth condition and morphology of cultured cells [2]: no change

inhibition at 5 µM ([3]; final conc. 5 μM, alanine variants of P10, CETP source not given): 5%
Sequence: EDTSPEDAMQ [Variant H]

inhibition at 7 µM [3, 6]: -12%
Sequence: ADTSPEDKMQ [Variant A]

inhibition at 0.001 µM ([1]; 1 nM, human blood plasma itself as CETP source, read-out: CETP inhibitory activity (FIG. 4, curve B)): ~50%
inhibition at 2 µM ([4]; CE-receptor LDL, read-out: inhibition of the transfer of CE from HDL to LDL): 50%
inhibition at 2 µM ([4]; CE-receptor VLDL, read-out: inhibition of the transfer of CE from HDL to VLDL): ~10%
inhibition at 2 µM ([4]; CE-receptor re-synthesized LDL (LDLR), read-out: inhibition of the transfer of CE from HDL to LDLR): 55%
inhibition at 0.001 µM ([3]; 1 nM, pure CETP separated from human blood plasma, read-out: CETP inhibitory activity (FIG. 4, curve A)): ~100%
Sequence: EDTSPEDKMQDYVKQATRTAQDALTSVK [Peptide P28]

inhibition at 2 µM [1, 7]: 50 ± 0.8%
Inhibitory Activity (Mean ± S.D.) [3, 8]: 100 ± 2.5%
Sequence: EDTSPEDKMQDYVKQATRTAQDAL [Peptide P24]
change in growth condition and morphology of cultured cells [2]: no change

Inhibitory Activity (Mean ± S.D.) ([1]; final conc. of peptide 2 μM, CETP source human plasma, synthesized peptides): 40 ± 5.5%
Inhibitory Activity (Mean ± S.D.) [3, 8]: 90 ± 3.5%
Sequence: EDTSLLDKMQDYVKQATR [Peptide P18]
change in growth condition and morphology of cultured cells [2]: no change
